Like-named read-outs stand apart in the source and are kept apart here.
T1: Tpx WT (Trypanosoma brucei brucei, UniProt O77404)
T1 construct: with residue G1 and end with N144; GAMG (TEV-cleavage scar that replaces Met1); Trx-His6 (thioredoxin fusion with His6 tag) (N, cleaved yes); made in house; host or cells: E. coli BL21-Gold(DE3)
T1 sequence (O77404 with tags, fused parts or gaps limits assumed): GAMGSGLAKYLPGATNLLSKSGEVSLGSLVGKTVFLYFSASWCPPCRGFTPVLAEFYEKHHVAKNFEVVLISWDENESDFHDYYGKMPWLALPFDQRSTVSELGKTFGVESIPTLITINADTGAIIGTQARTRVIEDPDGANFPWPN

T2: Tryparedoxin (Trypanosoma brucei, UniProt O77404)
T2 chain: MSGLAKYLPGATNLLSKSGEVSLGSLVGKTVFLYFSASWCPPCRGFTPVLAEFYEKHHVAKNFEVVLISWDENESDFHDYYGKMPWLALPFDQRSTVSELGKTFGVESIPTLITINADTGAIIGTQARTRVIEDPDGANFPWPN


Experiments:
[1] = system: T. brucei brucei 449 Lister 427 parasites; assay: Trypanosome cell survival assay (ATPlite luminescence); assay type: cell-based, Trypanosoma brucei brucei; conditions: for Selectivity index (24 h), EC50 HEK293 cells divided by EC50 T. brucei: HEK293 vs T. brucei brucei 449, 24 h; for EC50: Trypanosoma brucei
Protocol: Trypanosome and HEK293 Cell Survival Assays
Half maximal effective concentration (EC50) values of compounds 1- 5 against T. brucei brucei 449 Lister 427 parasites were determined with an ATPlite Luminescence assay as described previously.4,5 The EC50 was defined as the compound concentration at which a fifty percent decrease in relative […]
(§1) 1-5 in human embryonic kidney (HEK293) was determined with a resazurin assay, which is based on the reduction of resazurin to fluorescent resorufin by living cells.6 HEK293 cells were maintained in DMEM high glucose supplemented with 10% FBS, 1% penicillin/streptomycin and 1% L-glutamine at 37 °C and 5% CO2. For the toxicity screen, 40000 cells per well were seeded in a 48 well plate (400 µL medium/well) and incubated at 37 °C for 24 hours before treatment with inhibitors 1-5. Cells were treated with 0.1 µM, 0.3 µM, 0.7 µM, 1 µM, 3 µM, 7 µM, 10 µM, 30 µM, 70 µM and 100 µM of the respective inhibitor, DMSO treatment served as negative control. The overall DMSO concentration was kept at 1 vol.% DMSO per well. After 24 hours of treatment, the medium was exchanged with a medium/resazurin mixture (0.015 mg/mL resazurin per well) and the cells were incubated for 3 h at 37 °C before transferring 100 µl medium from each well into a black opaque-walled 96-well plate. Fluorescence was directly measured using a CLARIOstar Plus reader (BMG Labtech GmbH, Ortenberg, Germany) with a 545-20 nm excitation / 600-40 nm emission filter. Each experiment was done in biological quadruplets and cell viability was analyzed in comparison to the DMSO control by plotting relative fluorescence units (RFU) against inhibitor concentration (Prism, Graphpad). A fifty percent decrease in relative fluorescence indicated the compound concentration where half of the HEK293 cells had died, which […]
(§2) In Vitro Tpx Activity Assay and Inactivation Kinetics
(§3) To reconstitute the peroxide clearance cascade (PCC), its components (at final concentrations of 360 µM NADPH, 0.1 U/mL TR, 110 µM TS2, 5 µM Tpx, 180 nM Px, 100 µM H2O2) were mixed in a total volume of 200 µL in a 10 mm quartz cuvette. First, 15 µL NADPH (4.8 mM in TR buffer (40 mM HEPES pH 7.5, 1 mM Na-EDTA), 10 µL TR (2 U/mL in TR buffer), 10 µL TS2 (2.2 mM in sterile filtered, deionized

[2] = system: T3, Tpx; assay: SEC-MALS of Tpx/inhibitor complexes; assay type: binding, Trypanosoma brucei; conditions: for SEC-MALS Mw of Tpx/inhibitor complex: 100 µM analyte, value ± measurement error
T3 construct: with residue G1 and end with N144; GAMG (TEV-cleavage scar that replaces Met1); Trx-His6 (thioredoxin fusion with His6 tag) (N, cleaved yes); made in house; host or cells: E. coli BL21-Gold(DE3)
Protocol: Size Exclusion Chromatography Coupled To Multi-Angle Light Scattering (SEC-MALS) To determine the oligomeric state of Tpx/inhibitor complexes by SEC-MALS, 100 µM of purified Tpx/inhibitor complexes were applied to a SEC column (Superdex75 10/300, GE Healthcare) in Tpx buffer (25 mM NaPi pH 7.5, 150 mM NaCl) at a flow rate of 0.5 ml/min at room temperature. The molecular weights of the eluting proteins were measured using a Dawn Heleos 8+ light scattering detector and an Optilab T-rEX refractive index detector (Wyatt Technologies). Data were analyzed with […]

[3] = system: HEK293 cells; assay: HEK293 cell survival assay (resazurin); assay type: cell-based; conditions: Homo sapiens; HEK293, 24 h incubation
Protocol: Trypanosome and HEK293 Cell Survival Assays […]
as §1, §2, §3

[4] = system: T3, Tpx; assay: In vitro Tpx activity assay: reconstituted peroxide clearance cascade, NADPH consumption followed photometrically; assay type: biochemical, Trypanosoma brucei; conditions: for second-order rate constant k2nd of irreversible Tpx inhibition: 5 µM Tpx, 25 °C, slope of kobs vs inhibitor concentration; for speed of Tpx inactivation: Tpx-equimolar concentrations (5 µM)
[5] = molecular target: T1, Tpx WT; assay: Dilution ITC of covalent Tpx/inhibitor complexes (dimer dissociation); assay type: binding; conditions: according to dimer KD
Protocol: Isothermal Titration Calorimetry (ITC)
Dissociation coefficients (K D) of dimeric Tpx/inhibitor complexes were determined via dilution ITC following our previously established protocol. 4 Purified complexes in Tpx buffer were titrated to Tpx buffer, and the heat signals of each injection was recorded. To observe dimer dissociation, measurements were conducted with 78 µM (Tpx/para-CFT), 122 µM (Tpx/meta-CFT), 277 µM (Tpx/ortho-CFT), 821 µM (Tpx/CtFT), and 176 µM (Tpx/CPT). A MicroCal PEAQ-ITC Automated […]
1, 3 and 5. After the initial wait time of 2 min, 19 serial injections of 2 μL with a spacing of 3 min where performed. The reference power was set to 11 μcal sec-1 and stirring speed to 750 rpm. A MicroCal PEAQ-ITC (Malvern Panalytical) with the same experimental setup was used to determine the KD value of covalent Tpx WT complexes with meta-CFT (2, 10 injections), and CtFT (4, 20 injections). Each titration was performed in a technical triplicate, and controls included water to water and unmodified Tpx to buffer titrations. Transferability between instruments was checked by repeating the Tpx/para -CFT […]
titration. […]

[6] = molecular target: T2, Tryparedoxin; assay: dilution ITC
[7] = bloodstream form T. brucei brucei 449, 24 h incubation, read-out: EC50 (24 h)
[8] = bloodstream form T. brucei brucei 449, 48 h incubation, read-out: EC50 (48 h)

Row | Molecule | Selectivity index (24 h), EC50 HEK293 cells divided by EC50 T. brucei [1] | EC50 [1, 7] [µM] | EC50 [1, 8] [µM] | SEC-MALS Mw of Tpx/inhibitor complex [2] [kDa] | EC50 [3] [µM] | oligomeric state of inhibitor-bound Tpx by SEC-MALS ([2]; 100 µM analyte concentration) | second-order rate constant k2nd of irreversible Tpx inhibition [4] [M⁻¹ s⁻¹] | speed of Tpx inactivation [4] | portion of Tpx WT/inhibitor complex dimeric ([5]; 750 µM analyte) [%] | portion of Tpx WT/inhibitor complex dimeric ([5]; 100 µM analyte) [%] | Kd [6] [µM]
1 | O=c1[nH]c(CCl)nc2scc(-c3ccccc3)c12 [CPT, 2-(chloromethyl)-5-phenylthieno[2,3-d]pyrimidin-4(3H)-one] | 8.2 ± 4.2 | 0.6 ± 0.3 | 1.4 ± 0.4 | 19.5 ± 0.6 | 4.9 ± 0.6 | – | – | – | – | – | –
2 | O=c1[nH]c(CCl)nc2scc(-c3ccc(C(F)(F)F)cc3)c12 [CtFT, 2-(chloromethyl)-5-(4-(trifluoromethyl)phenyl)thieno[2,3-d]pyrimidin-4(3H)-one] | 1.8 ± 0.5 | 2.2 ± 0.6 | 2.5 ± 0.6 | 16.6 ± 0.7 | 3.9 ± 0.3 | remained monomeric | 1870 ± 17 | fastest | – | – | –
3 | O=c1[nH]c(CCl)nc2scc(-c3cccc(F)c3)c12 [meta-CFT, 2-(chloromethyl)-5-(3-fluorophenyl)thieno[2,3-d]pyrimidin-4(3H)-one] | 5.0 ± 1.6 | 1.3 ± 0.4 | 1.1 ± 0.5 | 23.6 ± 0.9 | 6.5 ± 0.5 | – | 933 ± 17 | slowest | – | – | –
4 | O=c1[nH]c(CCl)nc2scc(-c3ccccc3F)c12 [ortho-CFT, 2-(chloromethyl)-5-(2-fluorophenyl)thieno[2,3-d]-pyrimidin-4(3H)-one] | 5.0 ± 1.6 | 1 ± 0.3 | 0.8 ± 0.3 | 17.5 ± 0.9 | 5 ± 0.6 | – | – | fastest | 87 | – | –
5 | O=c1[nH]c(CCl)nc2scc(-c3ccc(F)cc3)c12 [para-CFT, 2-(chloromethyl)-5-(4-fluorophenyl)-thieno[2,3-d]pyrimidin-4(3H)-one] | 3.0 ± 0.8 | 1.3 ± 0.3 | 1.5 ± 0.3 | 21.3 ± 1.1 | 3.9 ± 0.4 | – | – | – | – | 85 | –
6 | Tryparedoxin (protein, meta-CFT covalently bound at C40) MSGLAKYLPGATNLLSKSGEVSLGSLVGKTVFLYFSASWCPPCRGFTPVLAEFYEKHHVAKNFEVVLISWDENESDFHDYYGKMPWLALPFDQRSTVSELGKTFGVESIPTLITINADTGAIIGTQARTRVIEDPDGANFPWPN | – | – | – | – | – | – | – | – | – | – | 3.7
7 | Tryparedoxin (protein, CtFT covalently bound at C40) MSGLAKYLPGATNLLSKSGEVSLGSLVGKTVFLYFSASWCPPCRGFTPVLAEFYEKHHVAKNFEVVLISWDENESDFHDYYGKMPWLALPFDQRSTVSELGKTFGVESIPTLITINADTGAIIGTQARTRVIEDPDGANFPWPN | – | – | – | – | – | – | – | – | – | – | 410

Source: PMC13625682, “Inhibitor fluorination pattern modulates protein surface dynamics and chemically induced dimerization” (Chemical Science, 2026)
